Holding throughout (experiment): biochemical
Common to all, as to type: biochemical

Test [1] has as its target T1, 382 unique human kinases (Homo sapiens, UniProt Q9Y6M4).
T1 construct: purchased Reaction Biology (HotSpot contract assay)
The settings on record: kinase CK1g3, compound 10 uM; for remaining activity at 10 µM: read-out: % Enzyme Activity (relative to DMSO controls).

For test [2], the target named is T2, 382 unique human kinases (Homo sapiens, UniProt P51812).
T2 construct: purchased Reaction Biology (HotSpot contract assay)
The settings on record: RSK2, 10 uM; for remaining activity at 10 µM: read-out: % Enzyme Activity (relative to DMSO controls).

Test [3] concerns the target T3, 382 unique human kinases (Homo sapiens, UniProt P22455, V550L).
T3 construct: purchased Reaction Biology (HotSpot contract assay)
The settings on record: FGFR4 (V550L), 10 uM; for remaining activity at 10 µM: read-out: % Enzyme Activity (relative to DMSO controls).

Test [4] concerns the target T4, 382 unique human kinases (Homo sapiens, UniProt P21802, N549H).
T4 construct: purchased Reaction Biology (HotSpot contract assay)
The conditions noted are these: kinase FGFR2 (N549H), compound 10 uM; for remaining activity at 10 µM: read-out: % Enzyme Activity (relative to DMSO controls).

Test [5] addresses T5, 382 unique human kinases (Homo sapiens, UniProt Q8N4C8).
T5 construct: purchased Reaction Biology (HotSpot contract assay)
The settings on record: MINK/MINK1, 10 uM; for remaining activity at 10 µM: read-out: % Enzyme Activity (relative to DMSO controls).

Test [6] concerns the target T6, 382 unique human kinases (Homo sapiens, UniProt P11362, V561M).
T6 construct: purchased Reaction Biology (HotSpot contract assay)
The conditions noted are these: FGFR1 (V561M), 10 uM; for remaining activity at 10 µM: read-out: % Enzyme Activity (relative to DMSO controls).

In test [7] the target is T7, 382 unique human kinases (Homo sapiens, UniProt P08581, P991S).
T7 construct: purchased Reaction Biology (HotSpot contract assay)
The settings on record: c-MET (P991S), 10 uM; for remaining activity at 10 µM: read-out: % Enzyme Activity (relative to DMSO controls).

The target in test [8] is T8, 382 unique human kinases (Homo sapiens, UniProt Q6PHR2).
T8 construct: purchased Reaction Biology (HotSpot contract assay)
T8 sequence (Q6PHR2 1-472): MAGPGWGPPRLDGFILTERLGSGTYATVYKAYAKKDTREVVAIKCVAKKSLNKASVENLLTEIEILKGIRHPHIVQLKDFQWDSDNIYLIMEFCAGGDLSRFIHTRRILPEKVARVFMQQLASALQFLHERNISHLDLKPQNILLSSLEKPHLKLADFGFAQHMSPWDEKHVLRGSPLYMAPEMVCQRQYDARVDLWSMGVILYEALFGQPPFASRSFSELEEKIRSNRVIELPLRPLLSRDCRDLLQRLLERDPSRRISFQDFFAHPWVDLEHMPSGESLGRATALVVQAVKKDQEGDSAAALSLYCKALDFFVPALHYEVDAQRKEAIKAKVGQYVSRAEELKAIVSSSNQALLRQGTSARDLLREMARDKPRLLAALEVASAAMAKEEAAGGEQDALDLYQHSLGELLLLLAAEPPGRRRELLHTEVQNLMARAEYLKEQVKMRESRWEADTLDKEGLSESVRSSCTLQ
The conditions noted are these: ULK3, 10 uM; for remaining activity at 10 µM: read-out: % Enzyme Activity (relative to DMSO controls).

Test [9] has as its target T9, 382 unique human kinases (Homo sapiens, UniProt P00519, E255K).
T9 construct: purchased Reaction Biology (HotSpot contract assay)
The settings on record: ABL1 (E255K), [ATP] 5 µM, compound 10 uM; for remaining activity at 10 µM: read-out: % Enzyme Activity (relative to DMSO controls).

For test [10], the target named is T10, 382 unique human kinases (Homo sapiens, UniProt Q86UE8).
T10 construct: purchased Reaction Biology (HotSpot contract assay)
The settings on record: TLK2, 10 uM; for remaining activity at 10 µM: read-out: % Enzyme Activity (relative to DMSO controls).

The target in test [11] is T11, 382 unique human kinases (Homo sapiens, UniProt Q13177).
T11 construct: purchased Reaction Biology (HotSpot contract assay)
The conditions noted are these: PAK2, 10 uM; for remaining activity at 10 µM: read-out: % Enzyme Activity (relative to DMSO controls).

The target in test [12] is T12, 382 unique human kinases (Homo sapiens, UniProt Q96KB5).
T12 construct: purchased Reaction Biology (HotSpot contract assay)
T12 sequence (Q96KB5 1-322): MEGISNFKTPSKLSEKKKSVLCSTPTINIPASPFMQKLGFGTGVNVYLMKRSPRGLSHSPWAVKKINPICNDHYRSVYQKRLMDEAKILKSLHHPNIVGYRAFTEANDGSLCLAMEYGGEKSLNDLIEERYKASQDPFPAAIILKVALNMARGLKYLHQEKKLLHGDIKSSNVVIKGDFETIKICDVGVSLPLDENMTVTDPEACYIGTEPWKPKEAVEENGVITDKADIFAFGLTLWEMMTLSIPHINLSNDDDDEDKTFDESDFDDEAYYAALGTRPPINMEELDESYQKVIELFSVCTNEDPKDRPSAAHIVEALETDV
The conditions noted are these: PBK/TOPK, 10 uM; for remaining activity at 10 µM: read-out: % Enzyme Activity (relative to DMSO controls).

Test [13] deals with T13, 382 unique human kinases (Homo sapiens, UniProt P51451).
T13 construct: purchased Reaction Biology (HotSpot contract assay)
The settings on record: BLK, [ATP] 10 µM.

Test [14] addresses T14, 382 unique human kinases (Homo sapiens, UniProt O15530).
T14 construct: purchased Reaction Biology (HotSpot contract assay)
T14 sequence (O15530 1-556): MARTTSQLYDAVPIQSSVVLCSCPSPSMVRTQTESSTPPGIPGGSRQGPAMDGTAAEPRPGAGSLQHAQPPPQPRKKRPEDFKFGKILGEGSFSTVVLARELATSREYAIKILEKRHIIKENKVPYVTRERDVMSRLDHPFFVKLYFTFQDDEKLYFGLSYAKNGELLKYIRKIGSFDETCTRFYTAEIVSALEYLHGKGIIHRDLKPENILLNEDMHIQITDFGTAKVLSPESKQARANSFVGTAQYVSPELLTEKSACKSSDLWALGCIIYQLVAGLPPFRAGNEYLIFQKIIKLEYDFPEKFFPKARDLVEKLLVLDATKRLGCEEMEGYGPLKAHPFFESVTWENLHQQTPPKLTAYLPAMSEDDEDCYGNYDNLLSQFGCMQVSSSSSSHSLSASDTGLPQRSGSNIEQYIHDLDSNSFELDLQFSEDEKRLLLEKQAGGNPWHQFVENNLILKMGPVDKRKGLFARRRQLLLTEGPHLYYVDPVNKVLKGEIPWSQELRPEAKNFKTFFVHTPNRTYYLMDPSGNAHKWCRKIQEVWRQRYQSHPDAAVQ
The conditions noted are these: PDK1/PDPK1, 10 uM; for remaining activity at 10 µM: read-out: % Enzyme Activity (relative to DMSO controls).

The target in test [15] is T15, 382 unique human kinases (Homo sapiens, UniProt P04629).
T15 construct: purchased Reaction Biology (HotSpot contract assay)
The conditions noted are these: TRKA, [ATP] 100 µM, compound 10 uM; for remaining activity at 10 µM: read-out: % Enzyme Activity (relative to DMSO controls).

The target in test [16] is T16, 382 unique human kinases (Homo sapiens, UniProt Q15418).
T16 construct: purchased Reaction Biology (HotSpot contract assay)
The conditions noted are these: RSK1, [ATP] 20 µM, compound 10 uM; for remaining activity at 10 µM: read-out: % Enzyme Activity (relative to DMSO controls).

[17] abbreviates: compound 10 uM, read-out: % Enzyme Activity (relative to DMSO controls).

T13 sequence (P51451 whole entry): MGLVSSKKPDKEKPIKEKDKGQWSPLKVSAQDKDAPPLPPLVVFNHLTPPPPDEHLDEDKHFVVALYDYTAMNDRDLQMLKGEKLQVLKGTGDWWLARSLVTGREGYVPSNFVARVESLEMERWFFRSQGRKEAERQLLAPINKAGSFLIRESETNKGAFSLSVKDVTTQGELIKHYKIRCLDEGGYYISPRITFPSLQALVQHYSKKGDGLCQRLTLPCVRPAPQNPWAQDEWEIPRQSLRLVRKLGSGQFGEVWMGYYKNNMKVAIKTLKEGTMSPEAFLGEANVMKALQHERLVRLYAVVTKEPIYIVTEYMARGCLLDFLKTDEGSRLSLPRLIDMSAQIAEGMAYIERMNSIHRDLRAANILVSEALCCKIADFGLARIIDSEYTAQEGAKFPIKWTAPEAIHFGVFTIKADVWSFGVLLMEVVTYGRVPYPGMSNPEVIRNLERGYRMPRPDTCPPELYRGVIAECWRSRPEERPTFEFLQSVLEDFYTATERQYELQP
T15 sequence (P04629 33-796): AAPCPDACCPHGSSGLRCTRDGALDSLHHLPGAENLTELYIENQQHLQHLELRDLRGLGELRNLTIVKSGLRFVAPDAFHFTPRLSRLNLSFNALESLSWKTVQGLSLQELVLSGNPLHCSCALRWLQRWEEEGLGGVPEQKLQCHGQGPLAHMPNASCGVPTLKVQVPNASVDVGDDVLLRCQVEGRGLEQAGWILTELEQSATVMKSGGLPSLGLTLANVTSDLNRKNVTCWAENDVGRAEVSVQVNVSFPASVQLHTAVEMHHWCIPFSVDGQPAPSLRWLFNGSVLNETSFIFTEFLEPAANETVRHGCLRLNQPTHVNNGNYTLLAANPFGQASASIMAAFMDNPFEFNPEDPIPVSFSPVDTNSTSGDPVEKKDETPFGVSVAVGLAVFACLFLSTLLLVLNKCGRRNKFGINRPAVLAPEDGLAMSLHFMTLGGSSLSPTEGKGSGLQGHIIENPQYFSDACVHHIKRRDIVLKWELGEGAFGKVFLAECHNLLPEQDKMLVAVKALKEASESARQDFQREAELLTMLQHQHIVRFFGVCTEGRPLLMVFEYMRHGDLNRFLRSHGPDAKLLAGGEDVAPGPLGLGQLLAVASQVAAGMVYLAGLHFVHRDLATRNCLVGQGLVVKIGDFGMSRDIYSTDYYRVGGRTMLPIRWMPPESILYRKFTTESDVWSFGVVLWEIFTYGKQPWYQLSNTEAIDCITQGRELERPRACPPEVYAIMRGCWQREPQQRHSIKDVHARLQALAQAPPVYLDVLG
T2 sequence (P51812 whole entry): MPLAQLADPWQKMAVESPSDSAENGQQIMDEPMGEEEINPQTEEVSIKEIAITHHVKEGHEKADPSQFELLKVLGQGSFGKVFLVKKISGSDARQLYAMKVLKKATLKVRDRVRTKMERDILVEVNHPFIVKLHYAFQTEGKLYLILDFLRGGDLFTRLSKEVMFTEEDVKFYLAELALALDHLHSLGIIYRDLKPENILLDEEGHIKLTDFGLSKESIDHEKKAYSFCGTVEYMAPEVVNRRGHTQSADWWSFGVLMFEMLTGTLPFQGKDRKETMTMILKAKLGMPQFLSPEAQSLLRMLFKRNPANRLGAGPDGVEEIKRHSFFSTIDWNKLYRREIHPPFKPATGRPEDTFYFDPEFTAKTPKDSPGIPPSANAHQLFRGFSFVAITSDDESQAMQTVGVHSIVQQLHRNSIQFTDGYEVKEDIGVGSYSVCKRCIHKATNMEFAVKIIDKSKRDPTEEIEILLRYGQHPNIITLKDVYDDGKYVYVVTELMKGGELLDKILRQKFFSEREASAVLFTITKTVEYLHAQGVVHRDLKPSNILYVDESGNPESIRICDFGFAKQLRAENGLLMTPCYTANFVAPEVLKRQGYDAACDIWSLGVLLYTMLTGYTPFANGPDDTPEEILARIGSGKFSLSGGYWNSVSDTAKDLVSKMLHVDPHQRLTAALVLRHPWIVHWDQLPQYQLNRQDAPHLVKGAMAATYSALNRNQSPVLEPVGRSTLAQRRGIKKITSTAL
T10 sequence (Q86UE8 whole entry): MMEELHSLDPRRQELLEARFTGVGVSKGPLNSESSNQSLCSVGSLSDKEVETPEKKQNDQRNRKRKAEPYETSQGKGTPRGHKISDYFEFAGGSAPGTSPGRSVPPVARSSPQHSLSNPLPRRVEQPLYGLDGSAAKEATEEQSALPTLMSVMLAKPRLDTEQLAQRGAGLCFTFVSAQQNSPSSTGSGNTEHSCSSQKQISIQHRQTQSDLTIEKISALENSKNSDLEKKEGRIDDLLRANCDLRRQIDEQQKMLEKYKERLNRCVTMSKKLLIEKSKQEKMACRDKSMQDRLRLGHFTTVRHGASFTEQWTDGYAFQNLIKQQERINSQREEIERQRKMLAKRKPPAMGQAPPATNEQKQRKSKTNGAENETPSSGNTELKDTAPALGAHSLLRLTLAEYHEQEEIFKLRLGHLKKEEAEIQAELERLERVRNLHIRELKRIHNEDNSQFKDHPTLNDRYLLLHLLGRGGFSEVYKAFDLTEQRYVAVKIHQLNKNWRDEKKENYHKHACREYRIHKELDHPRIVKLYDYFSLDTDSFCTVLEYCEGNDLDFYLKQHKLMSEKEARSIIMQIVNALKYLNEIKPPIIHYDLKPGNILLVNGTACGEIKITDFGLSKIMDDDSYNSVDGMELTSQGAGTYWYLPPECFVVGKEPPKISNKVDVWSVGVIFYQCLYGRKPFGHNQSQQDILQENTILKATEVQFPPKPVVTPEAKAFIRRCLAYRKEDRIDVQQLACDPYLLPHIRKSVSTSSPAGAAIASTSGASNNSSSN
T4 sequence (P21802 22-821 N549H): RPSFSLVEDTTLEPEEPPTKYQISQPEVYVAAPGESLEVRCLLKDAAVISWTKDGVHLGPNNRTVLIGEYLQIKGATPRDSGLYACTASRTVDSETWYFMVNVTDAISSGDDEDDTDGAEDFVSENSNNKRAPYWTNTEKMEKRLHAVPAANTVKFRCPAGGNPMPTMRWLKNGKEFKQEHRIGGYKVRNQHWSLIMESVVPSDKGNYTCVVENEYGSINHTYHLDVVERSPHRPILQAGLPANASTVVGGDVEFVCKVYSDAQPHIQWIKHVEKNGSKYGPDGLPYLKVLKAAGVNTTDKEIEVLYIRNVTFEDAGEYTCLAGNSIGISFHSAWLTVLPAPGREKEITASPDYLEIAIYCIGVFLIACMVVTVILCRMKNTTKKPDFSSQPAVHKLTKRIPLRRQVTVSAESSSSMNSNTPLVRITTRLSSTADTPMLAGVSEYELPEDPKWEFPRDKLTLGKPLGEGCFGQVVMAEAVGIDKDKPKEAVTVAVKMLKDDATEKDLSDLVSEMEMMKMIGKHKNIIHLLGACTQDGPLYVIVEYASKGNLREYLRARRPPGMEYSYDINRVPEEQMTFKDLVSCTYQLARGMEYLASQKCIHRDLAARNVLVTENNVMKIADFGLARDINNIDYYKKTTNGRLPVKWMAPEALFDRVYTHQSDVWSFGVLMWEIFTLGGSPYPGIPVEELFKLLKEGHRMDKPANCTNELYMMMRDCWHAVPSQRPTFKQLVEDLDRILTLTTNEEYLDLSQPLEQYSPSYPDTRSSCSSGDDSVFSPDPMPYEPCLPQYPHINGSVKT
T5 sequence (Q8N4C8 whole entry): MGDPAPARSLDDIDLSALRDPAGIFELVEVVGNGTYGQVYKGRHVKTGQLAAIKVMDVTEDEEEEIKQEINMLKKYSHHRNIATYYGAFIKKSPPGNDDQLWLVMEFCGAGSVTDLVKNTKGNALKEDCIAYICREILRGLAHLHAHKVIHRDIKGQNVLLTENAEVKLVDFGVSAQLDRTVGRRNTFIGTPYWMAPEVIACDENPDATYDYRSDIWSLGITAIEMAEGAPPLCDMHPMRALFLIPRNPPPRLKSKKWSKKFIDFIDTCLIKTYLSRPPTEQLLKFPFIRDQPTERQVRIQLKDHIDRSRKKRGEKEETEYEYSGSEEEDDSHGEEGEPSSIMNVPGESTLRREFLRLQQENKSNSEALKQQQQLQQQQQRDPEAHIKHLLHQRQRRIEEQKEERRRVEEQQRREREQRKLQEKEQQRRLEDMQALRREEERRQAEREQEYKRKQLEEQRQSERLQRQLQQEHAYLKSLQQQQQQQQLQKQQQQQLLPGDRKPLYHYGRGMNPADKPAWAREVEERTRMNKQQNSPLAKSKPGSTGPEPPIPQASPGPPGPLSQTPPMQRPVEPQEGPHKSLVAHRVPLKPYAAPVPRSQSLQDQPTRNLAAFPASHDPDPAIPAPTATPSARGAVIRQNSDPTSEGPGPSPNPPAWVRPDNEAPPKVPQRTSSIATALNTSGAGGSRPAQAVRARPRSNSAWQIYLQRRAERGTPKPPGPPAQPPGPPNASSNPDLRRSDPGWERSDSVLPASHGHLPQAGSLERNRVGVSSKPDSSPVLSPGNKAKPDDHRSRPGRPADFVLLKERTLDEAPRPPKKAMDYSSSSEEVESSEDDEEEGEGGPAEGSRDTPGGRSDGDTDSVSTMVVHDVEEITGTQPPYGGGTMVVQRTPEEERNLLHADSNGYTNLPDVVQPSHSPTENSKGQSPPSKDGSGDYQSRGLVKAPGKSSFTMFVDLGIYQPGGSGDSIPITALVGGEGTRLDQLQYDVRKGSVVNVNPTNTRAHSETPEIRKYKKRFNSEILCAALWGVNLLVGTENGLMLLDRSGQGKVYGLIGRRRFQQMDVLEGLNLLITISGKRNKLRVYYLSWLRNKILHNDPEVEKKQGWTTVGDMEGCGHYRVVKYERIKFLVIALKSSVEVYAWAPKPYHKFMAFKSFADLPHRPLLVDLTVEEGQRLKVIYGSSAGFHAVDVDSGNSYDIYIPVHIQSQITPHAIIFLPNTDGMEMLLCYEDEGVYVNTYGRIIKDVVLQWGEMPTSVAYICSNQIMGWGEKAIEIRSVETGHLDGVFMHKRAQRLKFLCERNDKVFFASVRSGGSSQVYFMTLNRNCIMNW

As to `CC(C)c1cc(-c2n[nH]c(=O)n2-c2ccc3c(ccn3C)c2)c(O)cc1O` [Ganetespib (STA9090)], the remaining activity at 10 µM is 82% at 382 unique human kinases [1]; 78.8% on 382 unique human kinases [2]; 76.1% at 382 unique human kinases [3]; 79.3% at 382 unique human kinases [4]; 73.6% at 382 unique human kinases [5].
Regarding `CC(C)c1cc(-c2n[nH]c(=O)n2-c2ccc3c(ccn3C)c2)c(O)cc1O` [Ganetespib], the remaining activity at 10 µM at 382 unique human kinases [6] was determined as 97.7%; on 382 unique human kinases [7], 109%; on 382 unique human kinases [8], 100%; on 382 unique human kinases [9] it was 4.77%; at 382 unique human kinases [10] it was 91.9%; at 382 unique human kinases [11] it was 99.6%. In addition, the remaining activity at 10 µM at 382 unique human kinases [12] was 93.8%; on 382 unique human kinases [13] (setting [17]) it was 7.74%; on 382 unique human kinases [14], 99.4%; on 382 unique human kinases [15] it was 52.8%; on 382 unique human kinases [16] it was 54.1%. Also, the remaining activity at 1 µM on 382 unique human kinases [13] (compound 1 uM, read-out: % Enzyme Activity (relative to DMSO controls)) turned out to be 38.4%.
With `CCNC(=O)c1noc(-c2cc(C(C)C)c(O)cc2O)c1-c1ccc(CN2CCOCC2)cc1` [Luminespib (AUY-922)], the “% Enzyme Activity (relative to DMSO controls)” value on 382 unique human kinases [1] is 98.54%; at 382 unique human kinases [2], 92.24%; on 382 unique human kinases [3], 101.11%; on 382 unique human kinases [4] it was 106.42%; at 382 unique human kinases [5], 85.21%. For the same molecule, the remaining activity at 10 µM at 382 unique human kinases [1] turned out to be 99.7%; on 382 unique human kinases [2], 93.5%; at 382 unique human kinases [3], 101%; on 382 unique human kinases [4], 107%; on 382 unique human kinases [5] it was 86.4%.
With `CCNC(=O)c1noc(-c2cc(C(C)C)c(O)cc2O)c1-c1ccc(CN2CCOCC2)cc1` [Luminespib], the “% Enzyme Activity (relative to DMSO controls)” value at 382 unique human kinases [6] is on record as 101.68%; at 382 unique human kinases [7] it was 98.52%; on 382 unique human kinases [8] it was 91.59%; at 382 unique human kinases [9], 14.20%; on 382 unique human kinases [10] it was 97.34%; on 382 unique human kinases [11], 99.27%. Moreover, the “% Enzyme Activity (relative to DMSO controls)” value on 382 unique human kinases [12] was 96.61%; at 382 unique human kinases [13] (compound 10 uM), 36.97%; at 382 unique human kinases [14] it was 101.64%; at 382 unique human kinases [15], 101.35%; at 382 unique human kinases [16] it was 100.81%. In addition, the remaining activity at 10 µM came to 103% at 382 unique human kinases [6]; 100% on 382 unique human kinases [7]; 94.8% at 382 unique human kinases [8]; 14.7% at 382 unique human kinases [9]; 98.7% at 382 unique human kinases [10]; 99.3% at 382 unique human kinases [11]. For the same molecule, the remaining activity at 10 µM at 382 unique human kinases [12] turned out to be 98.3%; at 382 unique human kinases [13] (setting [17]) it was 38.1%; at 382 unique human kinases [14] it was 102%; at 382 unique human kinases [15], 101%; at 382 unique human kinases [16], 103%.
